One experiment concerns BZD (central). Description: Receptor binding screen, [^3H]flunitrazepam. The conditions noted are these: 10 uM Concentration of Compound I-1-Z. Also on record: species or system rat.
The target in a further experiment is T1, DA transporter (h) (Homo sapiens, UniProt Q01959).
T1 construct: expressed in transfected cells; host or cells: CHO cells
The experiment in a line: Receptor binding screen, [^3H]BTCP. The conditions noted are these: 10 uM Concentration of Compound I-1-Z; read-out: Mean Value, percent inhibition of control specific binding: DA transporter (h).

Another experiment concerns P2X. Description: Receptor binding screen, [^3H]α,β-MeATP, rat urinary bladder. The conditions noted are these: 10 uM Concentration of Compound I-1-Z.
The test system of a further experiment is sst (non-selective). Description: Receptor binding screen, [^125I]Tyr^11-somatostatin, AtT-20 cells. The conditions noted are these: 10 uM Concentration of Compound I-1-Z. As for the experimental part:
For Table 4 below, the specific ligand binding to the receptors is defined as the difference between the total binding and the nonspecific binding determined in the presence of an excess of unlabelled ligand. The results are expressed as a percent inhibition of control specific binding obtained in the presence of Compound I-1-Z. The IC50 values (concentration causing a half-maximal inhibition of control specific binding) and Hill coefficients (nH) were determined by non-linear regression analysis of the competition curves using Hill equation curve fitting. The inhibition constants (Ki) were calculated from the Cheng Prusoff equation (Ki=IC50/(1+(L/KD)), where L=concentration of radioligand in the assay, and KD=affinity of the radioligand for the receptor). In each experiment, the respective reference compound was tested concurrently with Compound I-1-Z in order to assess the assay suitability.

Experiment [1] concerns LPS-induced lung inflammation. Description: LPS-induced pulmonary inflammation in rats. The class given is in vivo, Sprague Dawley rats. The conditions noted are these: FIG. 14. The procedure: LPS-induced pulmonary inflammation in rats is a widely used model of airway inflammation ([…] et al. (2002) J. Pharmacol. Exp. Ther. 302:127). For the experiment described here, groups of Sprague-Dawley female rats (180-200 g) were orally dosed with either a compound of the invention (1 or 10 mg/kg), or with vehicle 1 h before the LPS challenge. Animals were placed in a plexiglass chamber and LPS at 100 μg/ml was nebulized for ten minutes. The nebulizer was turned off for ten minutes, then the chamber was evacuated for a further ten minutes. The animals remained in the chamber throughout this 30 minute cycle. Animals were then returned to their cages for the remainder of the experiment. Four hours after exposure to LPS animals were sacrificed and lungs excised. Lungs were washed with three cycles of 3 ml RPMI 1640 medium and the lavage fluid combined. Cells were pelleted by centrifugation and washed in the same medium. Total cell counts were performed using a hemacytometer. Differential cell counts were conducted on Cytospin-prepared slides stained with Diff-Quick stain. Standard morphological criteria were used to define mononuclear and neutrophilic cells. Using the above protocol, an experiment to assess the effects of compound I-1-Z was carried out. Groups of four female Sprague Dawley rats were orally administered PBS, compound I-1-Z at the indicated doses, or dexamethasone at 3 mg/kg. […]

The target of a further experiment is T2, D2S (h) (Homo sapiens, UniProt P14416).
T2 construct: expressed in transfected cells; host or cells: HEK-293 cells
Description: Receptor binding screen, [^3H]spiperone. The conditions noted are these: 10 uM Concentration of Compound I-1-Z; read-out: Mean Value, percent inhibition of control specific binding: D2S (h).

Another experiment addresses T3, Rat SSAO (Rattus norvegicus, UniProt O08590).
T3 construct: rat lung or human umbilical cord homogenates were prepared by chopping the freshly removed tissue; from tissue; host or cells: rat lung homogenate (1000 g supernatant)
T3 sequence (O08590 1-763): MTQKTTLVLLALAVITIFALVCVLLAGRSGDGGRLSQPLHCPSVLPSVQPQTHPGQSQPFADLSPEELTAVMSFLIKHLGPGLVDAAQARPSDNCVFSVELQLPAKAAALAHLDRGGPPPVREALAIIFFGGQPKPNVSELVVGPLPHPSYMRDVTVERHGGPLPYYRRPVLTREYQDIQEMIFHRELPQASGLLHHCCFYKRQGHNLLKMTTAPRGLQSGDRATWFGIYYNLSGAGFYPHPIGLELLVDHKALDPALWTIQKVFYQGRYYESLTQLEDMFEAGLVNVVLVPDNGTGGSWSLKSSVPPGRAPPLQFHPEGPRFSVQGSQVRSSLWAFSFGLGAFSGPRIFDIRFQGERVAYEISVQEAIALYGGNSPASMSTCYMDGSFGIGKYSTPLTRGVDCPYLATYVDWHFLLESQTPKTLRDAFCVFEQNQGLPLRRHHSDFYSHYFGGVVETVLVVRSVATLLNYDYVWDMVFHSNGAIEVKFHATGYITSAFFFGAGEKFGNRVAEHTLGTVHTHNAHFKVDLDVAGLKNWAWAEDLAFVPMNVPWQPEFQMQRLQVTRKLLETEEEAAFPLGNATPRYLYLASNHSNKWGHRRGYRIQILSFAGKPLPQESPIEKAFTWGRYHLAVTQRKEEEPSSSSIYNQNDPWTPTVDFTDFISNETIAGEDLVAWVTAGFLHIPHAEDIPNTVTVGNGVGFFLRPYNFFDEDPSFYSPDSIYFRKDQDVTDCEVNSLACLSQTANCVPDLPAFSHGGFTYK
The experiment in a line: In vitro inhibition of SSAO activity, rat lung homogenate, 14C-benzylamine. It counts as biochemical. As for the experimental part:
SSAO activity was measured as described (Lizcano J M. Et al. (1998) Biochem J. 331:69). Briefly, rat lung or human umbilical cord homogenates were prepared by chopping the freshly removed tissue into small pieces and washing them thoroughly in PBS. The tissue was then homogenized 1:10 (w/v) for lung or 1:5 (w/v) for umbilical cord, in 10 mM potassium phosphate buffer (pH 7.8). Homogenates were then centrifuged at 1000 g at 4° C. for 10 min (lung) or 25,000 g for 30 min (umbilical cord); the supernatants were kept frozen until ready to use. Lung or umbilical cord homogenate was preincubated with clorgyline and pargyline at 1 μM to inhibit MAO-A and -B activity, respectively, and SSAO inhibitors were generally present at 1 nM-10 μM. The reaction was initiated by addition of 20 μM ^14C— benzylamine as substrate. The reaction was carried out at 37° C. in a final volume of 400 μL of 100 mM potassium phosphate buffer (pH 7.2) and stopped with 100 μl of 2M citric acid. Radioactively labeled products were extracted into toluene/ethyl acetate (1:1, v/v) containing 0.6% (w/v) 2,5-diphenyloxazole (PPO) before liquid scintillation counting.

The values that follow come from patent publication US20110269811A1, “INHIBITORS OF SEMICARBAZIDE-SENSITIVE AMINE OXIDASE (SSAO) AND VAP-1 MEDIATED ADHESION USEFUL FOR TREATMENT AND PREVENTION OF DISEASES” (priority 2006, published 2011).

pIC50: −log10 of the molar value.

T1 sequence (Q01959 whole entry): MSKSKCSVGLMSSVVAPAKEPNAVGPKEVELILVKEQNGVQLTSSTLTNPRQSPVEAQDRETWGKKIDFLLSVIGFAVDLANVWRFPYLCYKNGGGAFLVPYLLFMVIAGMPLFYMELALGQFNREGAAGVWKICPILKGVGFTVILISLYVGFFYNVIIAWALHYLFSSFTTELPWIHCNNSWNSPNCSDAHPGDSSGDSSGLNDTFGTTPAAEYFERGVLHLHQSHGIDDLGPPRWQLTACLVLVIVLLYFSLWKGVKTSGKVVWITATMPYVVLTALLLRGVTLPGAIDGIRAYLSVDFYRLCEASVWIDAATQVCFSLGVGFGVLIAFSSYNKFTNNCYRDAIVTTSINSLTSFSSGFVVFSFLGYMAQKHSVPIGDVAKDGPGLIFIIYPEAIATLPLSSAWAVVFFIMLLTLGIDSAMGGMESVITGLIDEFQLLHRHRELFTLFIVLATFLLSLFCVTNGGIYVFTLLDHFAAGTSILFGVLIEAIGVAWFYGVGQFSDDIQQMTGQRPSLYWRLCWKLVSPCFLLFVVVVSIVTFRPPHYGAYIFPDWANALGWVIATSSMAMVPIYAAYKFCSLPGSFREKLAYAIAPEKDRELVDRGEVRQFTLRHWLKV
T2 sequence (P14416 1-414 isoform P14416-2): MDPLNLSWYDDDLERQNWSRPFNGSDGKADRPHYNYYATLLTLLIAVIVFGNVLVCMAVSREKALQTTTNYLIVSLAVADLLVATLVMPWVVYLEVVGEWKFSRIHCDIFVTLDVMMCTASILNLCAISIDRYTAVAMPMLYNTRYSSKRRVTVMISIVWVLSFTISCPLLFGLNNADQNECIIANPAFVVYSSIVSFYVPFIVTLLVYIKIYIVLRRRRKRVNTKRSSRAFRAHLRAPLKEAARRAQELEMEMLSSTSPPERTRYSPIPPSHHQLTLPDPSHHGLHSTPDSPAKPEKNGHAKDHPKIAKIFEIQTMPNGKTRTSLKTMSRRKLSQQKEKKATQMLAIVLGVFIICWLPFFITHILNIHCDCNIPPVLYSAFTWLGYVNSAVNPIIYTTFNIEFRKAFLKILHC

Turning to `COc1ccc(C/C(=C/F)CN)cc1.Cl` [Compound I-1-Z, (Z)-3-Fluoro-2-(4-methoxybenzyl)-allylamine hydrochloride], the “Mean Value, percent inhibition of control specific binding: BZD (central)” value in the experiment on BZD (central) came out at 14%. Moreover, the inhibition at 10 µM is 38% at DA transporter (h) and -4% on D2S (h). In addition, the “Mean Value, percent inhibition of control specific binding: P2X” value in the experiment on P2X is on record as −2%. For the same molecule, in the experiment on sst (non-selective), the “Mean Value, percent inhibition of control specific binding: sst (non-selective)” value is listed as −4%. The LPS-induced lung inflammation result in experiment [1] (1 mg/kg orally before nebulized LPS) and in experiment [1] (10 mg/kg orally before nebulized LPS) was “effective in reducing LPS-induced lung inflammation” each time. At Rat SSAO, the negative-log IC50 (pIC50) is 7.89.

`CCOc1ccc(C/C(=C\F)CN)cc1.Cl` [Compound I-2-E, (E)-3-Fluoro-2-(4-ethoxybenzyl)-allylamine hydrochloride] gave a negative-log IC50 (pIC50) against Rat SSAO of 8.10.

As to `CCOc1ccc(C/C(=C/F)CN)cc1.Cl` [Compound I-2-Z, (Z)-3-Fluoro-2-(4-ethoxybenzyl)-allylamine hydrochloride], the pIC50 against Rat SSAO was 8.30.

Take `NC/C(F)=C\Cc1cc(F)cc(C(F)(F)F)c1` [II-1-E, (E)-2-Fluoro-4-(3-fluoro-5-trifluoromethylphenyl)-but-2-enylamine]: the pIC50 at Rat SSAO is 7.42.

The term inhibition denotes the change of the read-out against control, counted positive when it falls. What is called pIC50 is the negative decadic logarithm of the IC50, by convention in mol/L. The low end stands for a large IC50, the high end for a small IC50.
